# Tested on: LILRB2
# Experiment: siRNA dose response, LILRB2 mRNA knockdown, Dual-Glo Luciferase Assay
# Format: cell-based, human
# Conditions: Hepa1-6 + reporter plasmid, 24 hr
# Description: (§1) Dose response curves for siRNAs were generated in vitro using a variety of cell lines according to Table 4.
# (§2) Briefly, cells were seeded in 96-well plates and reverse transfected with siRNA, Lipofectamine® 2000 (0.5 uL/well; ThermoFisher), and, in some cases, a reporter plasmid (50 ng/well). The reporter plasmid (psiCHECK™-2, Promega) encoded both firefly luciferase and the gene of interest fused to renilla luciferase; silencing of the gene of interest results in proportional silencing of renilla luciferase but leaves firefly luciferase unaffected as an internal control.
# (§3) After 24 hr incubation at 37° C., mRNA knockdown was measured using an endpoint assay. For targets without a reporter plasmid, a branched DNA (bDNA) assay was performed according to the manufacturer's instructions (QuantiGene® Singleplex Gene Expression Assay, ThermoFisher) to measure both the target gene and GAPDH (housekeeping gene) mRNA. Data are plotted as siRNA concentration (nM) vs. remaining mRNA (ratio of target gene to GAPDH, normalized to mock siRNA-transfected cells). For targets with a reporter plasmid, a Dual-Glo® Luciferase Assay was performed according to the manufacturer's instructions (Promega) to measure firefly and renilla luciferase expression. Data are plotted as siRNA concentration (nM) vs. remaining mRNA (ratio of renilla to firefly luminescence, normalized to mock siRNA-transfected cells).
# (§4) For all dose response curves, a 4-parameter logistic model was applied to determine the IC50 of each siRNA sequence (Table 5 and FIG. 2). Data shown in Table 5 and FIG. 2 represent the mean of quadruplicates, +/−standard deviation.
row,Substance,IC50
1,"XD-10590: siRNA targeting LILRB2 (sense 5'-caGcAuCuuGGAuuAcAcsa-3'; antisense 5'-dTGUGuAAUCcAAGAUGCUGusu-3'; RNA with 2'-O-methyl and phosphorothioate modifications, case key not given here, as printed in the source, key not given here)",0.068 nM
2,"XD-10591: siRNA targeting LILRB2 (sense 5'-ggAuAcGAccAGAgcuugsa-3'; antisense 5'-dTCAAGCUCUGGUCGuAUccusu-3'; RNA with 2'-O-methyl and phosphorothioate modifications, case key not given here, as printed in the source, key not given here)",0.073 nM
3,"XD-10592: siRNA targeting LILRB2 (sense 5'-gcGAuAUGGcuGucAGuasa-3'; antisense 5'-dTUACUGAcAGCcAUAUCGCusu-3'; RNA with 2'-O-methyl and phosphorothioate modifications, case key not given here, as printed in the source, key not given here)",0.459 nM
4,"XD-10593: siRNA targeting LILRB2 (sense 5'-cuAuGGUuAuGAcuuGAasa-3'; antisense 5'-dTUUcAAGUcAuAACcAuAGusu-3'; RNA with 2'-O-methyl and phosphorothioate modifications, case key not given here, as printed in the source, key not given here)",0.136 nM
5,"XD-10594: siRNA targeting LILRB2 (sense 5'-gguuAuGAcuuGAccucusa-3'; antisense 5'-dTAGAGUUcAAGUcAuAACCusu-3'; RNA with 2'-O-methyl and phosphorothioate modifications, case key not given here, as printed in the source, key not given here)",0.089 nM
6,"XD-10597: siRNA targeting LILRB2 (sense 5'-cccAcuCcGucuAaGAucsa-3'; antisense 5'-dTGAUCUuAGACGGAGUGGGusu-3'; RNA with 2'-O-methyl and phosphorothioate modifications, case key not given here, as printed in the source, key not given here)",0.059 nM
7,"XD-10598: siRNA targeting LILRB2 (sense 5'-ccAcucCGucuAAgAucasa-3'; antisense 5'-dTUGAUCUuAGACGGAGUGGusu-3'; as printed in the source, key not given here)",0.109 nM
8,"XD-10599: siRNA targeting LILRB2 (sense 5'-cacuccGucuAAGaucAasa-3'; antisense 5'-dTUUGAUCUuAGACGGAGUGusu-3'; RNA with 2'-O-methyl and phosphorothioate modifications, case key not given here, as printed in the source, key not given here)",0.127 nM

# Tested on: CD207
# Experiment: siRNA dose response, CD207 mRNA knockdown, Dual-Glo Luciferase Assay
# Format: cell-based, human
# Conditions: Hepal-6 + reporter plasmid, 24 hr
# Description: as §1, §2, §3, §4
row,Substance,IC50
1,"XD-09241: siRNA targeting CD207 (sense 5'-gaAAAcAcccAcAguccGudTsdT-3'; antisense 5'-ACGGACUGUGGGUGUUUUCdTsdT-3'; as printed in the source, key not given here)",0.203 nM
2,"XD-09242: siRNA targeting CD207 (sense 5'-caGuccGuGcuGcauuAAudTsdT-3'; antisense 5'-AUuAAUGcAGcACGGACUGdTsdT-3'; as printed in the source, key not given here)",0.009 nM
3,"XD-09243: siRNA targeting CD207 (sense 5'-guccGuGcuGcAuuAAucudTsdT-3'; antisense 5'-AGAUuAAUGcAGcACGGACdTsdT-3'; as printed in the source, key not given here)",0.198 nM
4,"XD-09245: siRNA targeting CD207 (sense 5'-gcGuucAGAuccAgAuGGudTsdT-3'; antisense 5'-ACcAUCUGGAUCUGAACGCdTsdT-3'; as printed in the source, key not given here)",0.02 nM
5,"XD-09246: siRNA targeting CD207 (sense 5'-aaAuAcAAAGAuccGGGcAdTsdT-3'; antisense 5'-UGCCCGGAUCUUUGuAUUUdTsdT-3'; as printed in the source, key not given here)",0.025 nM
6,"XD-09248: siRNA targeting CD207 (sense 5'-uauucuAcAGGuGguuucudTsdT-3'; antisense 5'-AGAAACcACCUGuAGAAuAdTsdT-3'; as printed in the source, key not given here)",< 0.005 nM
7,"XD-09249: siRNA targeting CD207 (sense 5'-uauAGuGccGAGcaGuucudTsdT-3'; antisense 5'-AGAACUGCUCGGcACuAuAdTsdT-3'; RNA with 2'-O-methyl and phosphorothioate modifications, case key not given here, as printed in the source, key not given here)",0.153 nM

# Tested on: IGSF6
# Experiment: siRNA dose response, IGSF6 mRNA knockdown, Dual-Glo Luciferase Assay
# Format: cell-based, human
# Conditions: Hepa1-6 + reporter plasmid, 24 hr
# Description: as §1, §2, §3, §4
row,Substance,IC50
1,"XD-09642: siRNA targeting IGSF6 (sense 5'-gaAGcGAGAGcuAaAcAGAdTsdT-3'; antisense 5'-UCUGUUuAGCUCUCGCUUCdTsdT-3'; RNA with 2'-O-methyl and phosphorothioate modifications, case key not given here, as printed in the source, key not given here)",0.035 nM
2,"XD-09643: siRNA targeting IGSF6 (sense 5'-guGcucGGcGuAuuuuucAdTsdT-3'; antisense 5'-UGAAAAAuACGCCGAGcACdTsdT-3'; as printed in the source, key not given here)",0.077 nM
3,"XD-09645: siRNA targeting IGSF6 (sense 5'-agAAcuAuAccAuaAGAGAdTsdT-3'; antisense 5'-UCUCUuAUGGuAuAGUUCUdTsdT-3'; as printed in the source, key not given here)",0.034 nM
4,"XD-09646: siRNA targeting IGSF6 (sense 5'-ccAuAAGAGAcAuguGGAAdTsdT-3'; antisense 5'-UUCcAcAUGUCUCUuAUGGdTsdT-3'; RNA with 2'-O-methyl and phosphorothioate modifications, case key not given here, as printed in the source, key not given here)",0.01 nM

# Tested on: CLEC7A
# Experiment: siRNA dose response, CLEC7A mRNA knockdown, Dual-Glo Luciferase Assay
# Format: cell-based, human
# Conditions: Hepa1-6 + reporter plasmid, 24 hr
# Description: as §1, §2, §3, §4
row,Substance,IC50
1,"XD-10561: siRNA targeting CLEC7A (sense 5'-ggucAAGAuAAAugcAGAAdTsdT-3'; antisense 5'-UUCUGcAUUaAUCUUAACCdTsdT-3'; RNA with 2'-O-methyl and phosphorothioate modifications, case key not given here, as printed in the source, key not given here)",0.009 nM
2,"XD-10562: siRNA targeting CLEC7A (sense 5'-agGuAGGcuAGuAuuAuuudTsdT-3'; antisense 5'-AAAuAAuACuAGCCuACCUdTsdT-3'; as printed in the source, key not given here)",0.033 nM
3,"XD-10564: siRNA targeting CLEC7A (sense 5'-ggGuAAGccAuAAgcGaaudTsdT-3'; antisense 5'-AUUCGCUuAUGGCUuACCCdTsdT-3'; RNA with 2'-O-methyl and phosphorothioate modifications, case key not given here, as printed in the source, key not given here)",< 0.004 nM
4,"XD-10565: siRNA targeting CLEC7A (sense 5'-ccAuAAGcGAAucuuAAuudTsdT-3'; antisense 5'-AAUuAAGAUUCGCUuAUGGdTsdT-3'; RNA with 2'-O-methyl and phosphorothioate modifications, case key not given here, as printed in the source, key not given here)",< 0.004 nM
5,"XD-10566: siRNA targeting CLEC7A (sense 5'-ugccAuAucucuAauAGAAdTsdT-3'; antisense 5'-UUCuAUuAGAGAuAUGGcAdTsdT-3'; RNA with 2'-O-methyl and phosphorothioate modifications, case key not given here, as printed in the source, key not given here)",0.006 nM
6,"XD-10567: siRNA targeting CLEC7A (sense 5'-gccuAGAAucuuGuAuAAudTsdT-3'; antisense 5'-AUuAuAcAAGAUUCuAGGCdTsdT-3'; as printed in the source, key not given here)",0.023 nM
7,"XD-10568: siRNA targeting CLEC7A (sense 5'-ccuAGAAucuuGuauAAuAdTsdT-3'; antisense 5'-uAUuAuAcAAGAUUCuAGGdTsdT-3'; as printed in the source, key not given here)",0.016 nM
8,"XD-10569: siRNA targeting CLEC7A (sense 5'-gcucucAuAGGAAaGuuuudTsdT-3'; antisense 5'-AAAACUUUCCuAUGAGAGCdTsdT-3'; as printed in the source, key not given here)",0.016 nM

# Source: patent US20210189342A1, “COMPOSITIONS AND METHODS FOR MODULATING MONOCYTE AND MACROPHAGE INFLAMMATORY PHENOTYPES AND IMMUNOTHERAPY USES THEREOF” (Verseau Therapeutics, Inc., priority 2018, published 2021)
